Assay results published in patent publication US10934278B2, “Compounds” (Autifony Therapeutics Limited, priority 2016, dated 2021).

What was measured:
human Kv3.1 channels = target: T1, human Kv3.1 channels (Homo sapiens, UniProt P48547); assay: hKv3.1 IonWorks Quattro whole-cell current potentiation assay; assay type: cell-based; conditions: for % current increase @ conc 1.56 μM: Kv3.1, 1.56 μM; for % current increase @ conc 3.12 μM: Kv3.1, 3.12 μM; for % current increase @ conc 12.5 μM: Kv3.1, 12.5 μM; for EC50: hKv3.1, -15 mV voltage step, read-out: pEC50 (Kv3.1) (converted)
T1 construct: expressed in transfected cells; host or cells: CHO/Gam/E1A-clone22 (CGE22) cells, CHO-K1-derived, transiently transduced with BacMam (pFBM/human Kv3.1, MOI 50)
T1 sequence (P48547 1-511): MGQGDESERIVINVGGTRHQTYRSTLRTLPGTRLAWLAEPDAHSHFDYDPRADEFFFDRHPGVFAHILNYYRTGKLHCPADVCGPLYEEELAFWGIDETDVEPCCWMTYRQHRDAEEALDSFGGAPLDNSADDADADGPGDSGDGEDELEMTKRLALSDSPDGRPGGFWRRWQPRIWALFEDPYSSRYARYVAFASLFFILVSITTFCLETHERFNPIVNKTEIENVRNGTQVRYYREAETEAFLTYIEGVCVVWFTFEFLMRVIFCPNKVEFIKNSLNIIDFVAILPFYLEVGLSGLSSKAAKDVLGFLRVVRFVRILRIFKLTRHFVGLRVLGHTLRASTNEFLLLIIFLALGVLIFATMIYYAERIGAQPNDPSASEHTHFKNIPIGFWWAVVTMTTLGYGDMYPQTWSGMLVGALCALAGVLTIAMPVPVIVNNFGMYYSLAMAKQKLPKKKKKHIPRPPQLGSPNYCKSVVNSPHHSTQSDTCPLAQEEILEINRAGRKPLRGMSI
Text: To assess compound effects on human Kv3.1 channels (hKv3.1), CHO/Gam/E1A-clone22 alias CGE22 cells were transduced using a hKv3.1 BacMam reagent. This cell line was designed to be an improved CHO-K1-based host for enhanced recombinant protein expression as compared to wild type CHO-K1. The cell line was generated following the transduction of CHO-K1 cells with a BacMam virus expressing the Adenovirus-Gam1 protein and selection with Geneticin-G418, to generate a stable cell line, CHO/Gam-A3. CHO/Gam-A3 cells were transfected with pCDNA3-E1A-Hygro, followed by hygromycin-B selection and FACS sorting to obtain single-cell clones. BacMam-Luciferase and BacMam-GFP viruses were then used in transient transduction studies to select the clone based on highest BacMam transduction and recombinant protein expression. CGE22 cells were cultured in the same medium used for the hKv3.2 CHO-K1 stable cell line with the addition of 300 ug/ml hygromycin-B and 300 ug/ml G418. All other conditions were identical to those for hKv3.2 CHO-K1 cells. The day before an experiment 10 million CGE22 cells were plated in a T175 culture flask and the hKv3.1 BacMam reagent (pFBM/human Kv3.1) was added (MOI of 50). Transduced cells were used 24 h later.
Cell Preparation for Ion Works Quattro™ Experiments The day of the experiment, cells were removed from the incubator and the culture medium removed. Cells were washed with 5 ml of Dulbecco's PBS (DPBS) calcium and magnesium free and detached by the addition of 3 ml Versene (Invitrogen, Italy) followed by a brief incubation at 37° C. for 5 minutes. The flask was tapped to dislodge cells and 10 ml of DPBS containing calcium and magnesium was added to prepare a cell suspension. The cell suspension was then placed into a 15 ml centrifuge tube and centrifuged for 2 min at 1200 rpm. After centrifugation, the supernatant was removed and the cell pellet re-suspended in 4 ml of DPBS containing calcium and magnesium using a 5 ml pipette to break up the pellet. Cell suspension volume was then corrected to give a cell concentration for the assay of approximately 3 million cells per ml.
Experiments were conducted at r.t. using lonWorks Quattro™ planar array electrophysiology technology (Molecular Devices Corp.) with PatchPlate™ PPC. Stimulation protocols and data acquisition were carried out using a microcomputer (Dell Pentium 4). Planar electrode hole resistances (Rp) were determined by applying a 10 mV voltage step across each well. These measurements were performed before cell addition. After cell addition and seal formation, a seal test was performed by applying a voltage step from −80 mV to −70 mV for 160 ms. Following this, amphotericin-B solution was added to the intracellular face of the electrode to achieve intracellular access. Cells were held at −70 mV. Leak subtraction was conducted in all experiments by applying 50 ms hyperpolarizing (10 mV) prepulses to evoke leak currents followed by a 20 ms period at the holding potential before test pulses. For hKv3.2 and hKv3.1 assays, from the holding potential of −70 mV, a first test pulse to −15 mV was applied for 100 ms and following a further 100 ms at −70 mV, a second pulse to 40 mV was applied for 50 ms. Cells were then maintained for a further 100 ms at −100 mV and then a voltage ramp from −100 mV to 40 mV was applied over 200 ms. For hKv3.3 assays, from the holding potential of −70 mV, a first test pulse to 0 mV was applied for 500 ms and following a further 100 ms at −70 mV, a second pulse to 40 mV was applied for 200 ms. These longer test pulses were used to study inactivation of hKv3.3 channels. Test pulses protocol may be performed in the absence (pre-read) and presence (post-read) of the test compound. Pre- and post-reads may be separated by the compound addition followed by a 3 minute incubation.
The intracellular solution contained the following (in mM): K-gluconate 100, KCl 54, MgCl2 3.2, HEPES 5, adjusted to pH 7.3 with KOH. […]

[1] = tested on: rat model of neuropathic pain; assay: Neuropathic pain model, partial ligation of the sciatic nerve, paw withdrawal thresholds; assay type: in vivo; conditions: for Peak reversal of mechanical sensitivity: 3 h post-dose
Procedure: (§1) Subjects comprised male, Wistar Hanover rats, 6 animals per group (225±2 g).
(§2) Vehicle (12% Captisol®; 0.5% w/v HPMC and 0.1% w/v Tween-80; 5 ml/kg via the intraperitoneal route) was prepared using autoclaved deionized water not more than one week prior to use.
(§3) The control for the neuropathic pain model was lamotrigine, administered at 30 mg/kg via oral delivery. The control for the inflammatory pain model was diclofenac, administered at 30 mg/kg via oral delivery. Statistical analysis was performed using one-way ANOVA, and comparisons were performed with time-matched vehicle group using Tukey's HSD test wherein *p<0.05, **p<0.01, ***p<0.001.
Neuropathic pain was induced by partial ligation of the sciatic nerve. Briefly, the rats were anaesthetised (isoflurane/O2 inhalation), the left sciatic nerve exposed at mid-thigh level through a small incision and ⅓ to ½ of the nerve thickness tightly ligated within a 7.0 silk suture. The wound was closed with surgical glue. Animals were allowed to recover and tested 12-15 days following surgery.
Withdrawal thresholds were measured on both the ipsilateral (ligated) and contralateral (non-ligated) paws, prior to (predose) and then up to 24 h following drug or vehicle administration.
Pre-dose behavioural measurements were obtained by measuring paw withdrawals 14 days following nerve ligation; before the initiation of drug treatment. Following treatment, further readings were taken at 1, 3, 6 and 24 hour after administration.
(§4) Mechanical hyperalgesia was examined in a model of neuropathic pain by measuring paw withdrawal thresholds (PWT) to increasing mechanical force applied to the dorsal surface of the rat paw using an Analgesymeter (Ugo-Basile, Milan) equipped with a wedge-shaped probe (area 1.75 mm^2). Cut-off was set at 250 g and the end-point was taken as withdrawal of the hind paw. Both ipsilateral and contralateral paw withdrawal readings were taken.
Cold sensitivity can be assessed using a commercially available cold-plate (Ugo Basile, Milan). The cold plate is allowed to stabilize for 5 minutes at the set temperature prior to testing. Paw withdrawal latencies (PWL) are determined with the cold-plate set at 10° C. The animals are lightly restrained and each hind paw in turn placed onto the surface of the cold-plate. The end point is taken as the withdrawal of the paw and recorded as the withdrawal latency for the ipsilateral and the contralateral paw. A maximum cut-off of 30 seconds is used for each paw.
(§5) Data were expressed as withdrawal threshold (g) and percentage reversals calculated according to the following formula: […]

[2] = tested on: rat model of persistent inflammatory pain; assay: Persistent inflammatory pain model (FCA), paw withdrawal thresholds; assay type: in vivo
Procedure: as §1, §2, §3
Mechanical hyperalgesia was examined in a model of persistent inflammatory pain.
The hyperalgesia was induced by an intraplantar injection (25 μl) of Freund's Complete Adjuvant (FCA) into the left hind paw.
To assess the effect of the test compound, paw withdrawal thresholds were measured on both the ipsilateral (FCA-injected) and contralateral (non-injected) paws, prior to (naïve) and 24 h following FCA injection (predose), and then at 1, 3, 6 and 24 h after drug or vehicle administration.
as §4, §5

With Cc1ccc(O[C@H]2C[C@H](N3C(=O)NC(C)(C)C3=O)C2)c2c1OCC21CC1 the “% current increase @ conc 1.56 μM” value (human Kv3.1 channels) was 25%, the “% current increase @ conc 3.12 μM” value (human Kv3.1 channels) was 60% and the “% current increase @ conc 12.5 μM” value (human Kv3.1 channels) was 105%. It also gave an EC50 (human Kv3.1 channels) of 3.55 µM.

With Cc1ccc(O[C@@H]2CC[C@@H](N3C(=O)NC(C)(C)C3=O)C2)c2c1OCC21CC1 (racemic) the “% current increase @ conc 1.56 μM” value (human Kv3.1 channels) was 7%, the “% current increase @ conc 3.12 μM” value (human Kv3.1 channels) was 10% and the “% current increase @ conc 12.5 μM” value (human Kv3.1 channels) was 12%. For the same compound, the EC50 (human Kv3.1 channels) was greater than 50.1 µM.

With Cc1ccc(Oc2ncc(N3C(=O)NC(C)(C)C3=O)cn2)c2c1OCC21CC1 [Compound X, 5,5-dimethyl-3-[2-(7-methylspiro[2H-benzofuran-3,1′-cyclopropane]-4-yl)oxypyrimidin-5-yl]imidazolidine-2,4-dione] the “Peak reversal of mechanical sensitivity” value ([1]; 10 mg/kg i.p.) was 31%, the “Peak reversal of mechanical sensitivity” value ([1]; 30 mg/kg i.p.) was 73% and the “Peak reversal of mechanical sensitivity” value ([1]; 60 mg/kg i.p.) was 81%. The “effect on mechanical sensitivity, ipsilateral paw” value ([1]; 10, 30, 60 mg/kg i.p.) was “dose-related reversal of mechanical sensitivity”, the “changes in normal behaviour” value ([1]; administered acutely, neuropathic and inflammatory pain models) was “without causing significant changes in normal behaviour” and the “contralateral paw withdrawal thresholds to mechanical pressure” value ([1]; rat, in vivo) was “significant increases”. The duration of efficacy ([1]; rat, in vivo) was “up to 6 h”, the “time of maximal efficacy after dosing” value ([1]; rat, in vivo) was 1 to 3 h and the “effect on cold sensitivity, ipsilateral paw” value ([1]; results not shown) was “marked, dose-related reversal of cold sensitivity”. The general behaviour observation ([1]; treated rats) was “induced flaccidity in some of the treated rats”, the “Peak reversal of mechanical sensitivity” value ([2]; 10 mg/kg i.p., 3 h post-dose) was 64% and the “Peak reversal of mechanical sensitivity” value ([2]; 30 mg/kg i.p., 1 h post-dose) was 74%. For the same compound, the “Peak reversal of mechanical sensitivity” value ([2]; 60 mg/kg i.p., 1 h post-dose) was 92%, the “reversal of mechanical sensitivity” value ([2]; 60 mg/kg i.p., 6 h post-dose) was 45% and the “effect on mechanical sensitivity” value ([2]; 10, 30, 60 mg/kg i.p.) was “dose-related reversal of mechanical sensitivity”. For the same compound, the “time of peak reversal post-dose” value ([2]; rat, in vivo) was 1 to 3 h.

O=C(O)Cc1ccccc1Nc1c(Cl)cccc1Cl [diclofenac] was tested, and the “peak reversals in mechanical sensitivity” value ([2]; positive control, 30 mg/kg oral, 1 h post-dose) was 64%.

With Nc1nnc(-c2cccc(Cl)c2Cl)c(N)n1 [lamotrigine] the “Peak reversal of mechanical sensitivity” value ([1]; positive control, 30 mg/kg oral) was 67%.
